Source: publication PMC6199744, “Development of Chemical Proteomics for the Folateome and Analysis of the Kinetoplastid Folateome” (ACS Infectious Diseases, 2018)
Read-outs that look alike come from different tables or passages of the source.

Columns and labels:
Assay type in all cases: binding
[1] = target: T1, HeLa cell extract proteins (Homo sapiens, UniProt O00505)
T1 construct: endogenous in cells; host or cells: HeLa cell extract
T1 sequence (O00505 1-521): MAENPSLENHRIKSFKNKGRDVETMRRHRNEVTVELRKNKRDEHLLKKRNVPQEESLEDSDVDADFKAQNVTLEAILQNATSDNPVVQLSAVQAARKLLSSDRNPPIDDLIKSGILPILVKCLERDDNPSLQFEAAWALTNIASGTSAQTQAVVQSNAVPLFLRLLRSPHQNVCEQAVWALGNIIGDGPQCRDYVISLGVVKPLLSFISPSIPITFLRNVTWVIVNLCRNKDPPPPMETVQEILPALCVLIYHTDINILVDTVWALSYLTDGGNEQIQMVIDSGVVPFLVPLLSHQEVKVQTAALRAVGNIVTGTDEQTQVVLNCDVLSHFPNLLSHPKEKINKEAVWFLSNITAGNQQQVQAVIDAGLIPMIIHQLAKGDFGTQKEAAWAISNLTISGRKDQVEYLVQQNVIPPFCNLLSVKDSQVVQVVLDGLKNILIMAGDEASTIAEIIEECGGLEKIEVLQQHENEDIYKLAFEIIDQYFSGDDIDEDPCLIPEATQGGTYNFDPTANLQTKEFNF

[2] = target: T2, HeLa cell extract proteins (Homo sapiens, UniProt O60232)
T2 construct: endogenous in cells; host or cells: HeLa cell extract
T2 sequence (O60232 1-199): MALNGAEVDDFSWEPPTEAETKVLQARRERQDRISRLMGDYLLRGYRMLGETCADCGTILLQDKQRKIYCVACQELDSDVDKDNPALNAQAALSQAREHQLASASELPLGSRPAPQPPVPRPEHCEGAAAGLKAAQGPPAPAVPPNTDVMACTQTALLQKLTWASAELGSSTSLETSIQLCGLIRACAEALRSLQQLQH

[3] = target: T3, HeLa cell extract proteins (Homo sapiens, UniProt Q7Z6Z7)
T3 construct: endogenous in cells; host or cells: HeLa cell extract
T3 sequence (Q7Z6Z7 whole entry): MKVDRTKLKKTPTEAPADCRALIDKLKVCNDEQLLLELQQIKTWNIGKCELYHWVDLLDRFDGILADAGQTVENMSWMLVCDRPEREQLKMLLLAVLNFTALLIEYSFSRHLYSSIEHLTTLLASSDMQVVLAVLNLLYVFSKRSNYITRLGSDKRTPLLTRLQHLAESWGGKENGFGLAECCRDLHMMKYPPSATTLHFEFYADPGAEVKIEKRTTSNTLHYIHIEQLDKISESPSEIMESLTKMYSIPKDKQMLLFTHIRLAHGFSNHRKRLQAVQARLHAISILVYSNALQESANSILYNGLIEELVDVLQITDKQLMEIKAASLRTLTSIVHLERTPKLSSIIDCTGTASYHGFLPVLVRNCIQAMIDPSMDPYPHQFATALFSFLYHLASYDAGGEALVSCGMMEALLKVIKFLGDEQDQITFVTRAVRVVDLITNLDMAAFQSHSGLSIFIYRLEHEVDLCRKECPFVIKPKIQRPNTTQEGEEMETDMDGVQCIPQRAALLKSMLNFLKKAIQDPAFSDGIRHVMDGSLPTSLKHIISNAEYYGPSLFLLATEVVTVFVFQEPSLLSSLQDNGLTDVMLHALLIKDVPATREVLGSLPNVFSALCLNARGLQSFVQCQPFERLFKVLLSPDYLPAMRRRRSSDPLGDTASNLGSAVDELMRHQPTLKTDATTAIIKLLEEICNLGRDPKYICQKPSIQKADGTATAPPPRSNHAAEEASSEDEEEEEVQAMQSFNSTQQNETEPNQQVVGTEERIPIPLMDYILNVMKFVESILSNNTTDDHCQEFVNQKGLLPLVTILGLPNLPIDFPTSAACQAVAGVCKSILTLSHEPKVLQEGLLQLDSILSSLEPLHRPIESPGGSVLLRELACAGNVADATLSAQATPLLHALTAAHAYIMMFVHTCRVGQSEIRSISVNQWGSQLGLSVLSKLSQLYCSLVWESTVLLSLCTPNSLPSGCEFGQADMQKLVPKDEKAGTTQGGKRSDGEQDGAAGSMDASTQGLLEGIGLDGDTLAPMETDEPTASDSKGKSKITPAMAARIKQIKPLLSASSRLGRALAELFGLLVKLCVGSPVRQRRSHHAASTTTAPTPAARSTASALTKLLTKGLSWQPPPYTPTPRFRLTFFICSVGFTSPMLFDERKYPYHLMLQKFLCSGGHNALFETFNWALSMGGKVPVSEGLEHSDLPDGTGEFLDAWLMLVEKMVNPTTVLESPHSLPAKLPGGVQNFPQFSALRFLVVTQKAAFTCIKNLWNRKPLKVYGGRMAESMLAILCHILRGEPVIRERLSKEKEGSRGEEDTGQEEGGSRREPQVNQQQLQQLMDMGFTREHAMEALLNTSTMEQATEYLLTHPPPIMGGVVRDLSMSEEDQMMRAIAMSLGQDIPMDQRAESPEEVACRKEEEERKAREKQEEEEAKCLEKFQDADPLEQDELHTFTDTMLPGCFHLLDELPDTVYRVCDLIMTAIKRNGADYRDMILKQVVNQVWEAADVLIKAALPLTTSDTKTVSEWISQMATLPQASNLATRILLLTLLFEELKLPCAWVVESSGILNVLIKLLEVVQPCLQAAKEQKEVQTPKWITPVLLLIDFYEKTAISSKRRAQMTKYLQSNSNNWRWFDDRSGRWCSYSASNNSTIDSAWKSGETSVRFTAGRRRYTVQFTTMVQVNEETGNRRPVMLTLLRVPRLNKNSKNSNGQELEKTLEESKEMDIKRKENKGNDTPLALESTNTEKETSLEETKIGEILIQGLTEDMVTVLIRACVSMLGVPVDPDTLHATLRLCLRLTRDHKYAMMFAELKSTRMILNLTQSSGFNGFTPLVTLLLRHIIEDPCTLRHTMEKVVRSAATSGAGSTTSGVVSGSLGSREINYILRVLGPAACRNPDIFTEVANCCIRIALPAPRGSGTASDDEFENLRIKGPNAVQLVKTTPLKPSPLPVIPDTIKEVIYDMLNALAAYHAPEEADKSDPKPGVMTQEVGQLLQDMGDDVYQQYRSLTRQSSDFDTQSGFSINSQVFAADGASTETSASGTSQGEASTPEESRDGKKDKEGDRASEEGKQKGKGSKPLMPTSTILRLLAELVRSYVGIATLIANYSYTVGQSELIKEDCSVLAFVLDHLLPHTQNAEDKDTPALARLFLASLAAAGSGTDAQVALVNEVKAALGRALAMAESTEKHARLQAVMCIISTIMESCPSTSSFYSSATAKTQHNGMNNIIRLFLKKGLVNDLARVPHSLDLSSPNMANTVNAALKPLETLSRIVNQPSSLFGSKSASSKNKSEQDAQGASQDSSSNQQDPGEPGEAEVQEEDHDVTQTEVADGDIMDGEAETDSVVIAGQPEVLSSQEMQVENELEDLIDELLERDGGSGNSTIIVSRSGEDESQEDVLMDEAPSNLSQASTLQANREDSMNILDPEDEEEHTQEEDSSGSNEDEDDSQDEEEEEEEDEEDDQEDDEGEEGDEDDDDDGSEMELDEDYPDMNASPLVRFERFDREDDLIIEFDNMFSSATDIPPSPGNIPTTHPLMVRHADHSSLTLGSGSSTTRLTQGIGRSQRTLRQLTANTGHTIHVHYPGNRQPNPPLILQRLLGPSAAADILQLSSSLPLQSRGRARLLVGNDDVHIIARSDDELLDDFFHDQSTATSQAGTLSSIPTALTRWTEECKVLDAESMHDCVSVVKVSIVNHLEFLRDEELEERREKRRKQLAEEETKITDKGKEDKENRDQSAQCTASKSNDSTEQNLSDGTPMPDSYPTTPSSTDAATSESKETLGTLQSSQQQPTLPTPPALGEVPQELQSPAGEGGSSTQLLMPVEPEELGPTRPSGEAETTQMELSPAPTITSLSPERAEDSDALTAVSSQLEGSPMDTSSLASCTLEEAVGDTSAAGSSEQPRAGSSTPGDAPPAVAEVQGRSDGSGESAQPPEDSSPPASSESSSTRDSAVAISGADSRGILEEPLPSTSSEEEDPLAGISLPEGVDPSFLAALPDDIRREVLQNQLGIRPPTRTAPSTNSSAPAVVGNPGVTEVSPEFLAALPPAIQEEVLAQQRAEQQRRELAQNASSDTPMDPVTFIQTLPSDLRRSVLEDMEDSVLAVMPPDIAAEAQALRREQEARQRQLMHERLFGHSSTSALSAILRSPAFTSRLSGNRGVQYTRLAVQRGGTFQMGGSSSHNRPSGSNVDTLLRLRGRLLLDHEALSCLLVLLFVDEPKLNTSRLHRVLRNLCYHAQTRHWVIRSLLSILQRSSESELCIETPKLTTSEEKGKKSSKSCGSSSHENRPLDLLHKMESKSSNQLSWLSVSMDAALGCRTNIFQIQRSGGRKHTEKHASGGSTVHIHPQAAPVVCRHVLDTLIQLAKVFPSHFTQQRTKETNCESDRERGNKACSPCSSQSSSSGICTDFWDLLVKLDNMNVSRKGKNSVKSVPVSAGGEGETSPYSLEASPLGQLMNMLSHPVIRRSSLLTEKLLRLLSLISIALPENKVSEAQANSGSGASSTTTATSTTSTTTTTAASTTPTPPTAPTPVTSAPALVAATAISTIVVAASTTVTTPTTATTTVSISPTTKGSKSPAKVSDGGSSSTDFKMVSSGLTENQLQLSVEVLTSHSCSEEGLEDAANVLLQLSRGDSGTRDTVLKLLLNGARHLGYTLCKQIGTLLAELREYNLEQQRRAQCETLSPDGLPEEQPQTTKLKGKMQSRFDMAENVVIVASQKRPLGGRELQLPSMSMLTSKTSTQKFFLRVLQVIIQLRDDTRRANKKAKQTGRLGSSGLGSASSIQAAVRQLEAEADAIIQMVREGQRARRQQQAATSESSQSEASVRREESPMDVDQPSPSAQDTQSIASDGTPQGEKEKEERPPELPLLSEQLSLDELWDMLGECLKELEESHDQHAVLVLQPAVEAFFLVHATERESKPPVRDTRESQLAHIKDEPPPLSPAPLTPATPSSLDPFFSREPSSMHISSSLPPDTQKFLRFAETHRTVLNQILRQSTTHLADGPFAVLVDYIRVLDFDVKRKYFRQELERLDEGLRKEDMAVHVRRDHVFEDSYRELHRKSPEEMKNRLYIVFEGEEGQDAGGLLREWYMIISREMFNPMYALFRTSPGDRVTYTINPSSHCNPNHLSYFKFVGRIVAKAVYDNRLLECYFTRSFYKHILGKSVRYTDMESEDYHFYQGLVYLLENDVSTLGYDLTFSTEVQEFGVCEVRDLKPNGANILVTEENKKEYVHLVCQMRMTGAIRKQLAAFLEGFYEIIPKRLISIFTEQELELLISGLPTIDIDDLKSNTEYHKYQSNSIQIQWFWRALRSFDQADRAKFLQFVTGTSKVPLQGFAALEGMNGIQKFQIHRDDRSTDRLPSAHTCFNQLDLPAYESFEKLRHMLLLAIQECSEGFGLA

[4] = target: T4, HeLa cell extract proteins (Homo sapiens, UniProt O00483); conditions: captured protein NDUFA4; HeLa
T4 construct: endogenous in cells; host or cells: HeLa cell extract
T4 sequence (O00483 whole entry): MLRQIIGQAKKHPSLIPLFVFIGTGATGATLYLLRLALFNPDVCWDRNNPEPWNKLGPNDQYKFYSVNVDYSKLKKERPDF

[5] = target: T5, HeLa cell extract proteins (Homo sapiens, UniProt O00767); conditions: captured protein SCD; HeLa
T5 construct: endogenous in cells; host or cells: HeLa cell extract
T5 sequence (O00767 1-359): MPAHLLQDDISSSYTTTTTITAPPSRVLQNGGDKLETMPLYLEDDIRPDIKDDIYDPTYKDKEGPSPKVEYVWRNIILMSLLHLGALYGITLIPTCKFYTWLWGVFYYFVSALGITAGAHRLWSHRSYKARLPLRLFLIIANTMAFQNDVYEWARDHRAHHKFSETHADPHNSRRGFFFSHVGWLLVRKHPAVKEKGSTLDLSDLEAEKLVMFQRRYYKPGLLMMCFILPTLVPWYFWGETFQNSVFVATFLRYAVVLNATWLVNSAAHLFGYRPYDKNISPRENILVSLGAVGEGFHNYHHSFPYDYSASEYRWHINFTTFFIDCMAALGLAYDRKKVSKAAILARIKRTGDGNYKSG

[6] = target: T6, HeLa cell extract proteins (Homo sapiens, UniProt O43776); conditions: protein NARS; HeLa
T6 construct: endogenous in cells; host or cells: HeLa cell extract
T6 sequence (O43776 1-548): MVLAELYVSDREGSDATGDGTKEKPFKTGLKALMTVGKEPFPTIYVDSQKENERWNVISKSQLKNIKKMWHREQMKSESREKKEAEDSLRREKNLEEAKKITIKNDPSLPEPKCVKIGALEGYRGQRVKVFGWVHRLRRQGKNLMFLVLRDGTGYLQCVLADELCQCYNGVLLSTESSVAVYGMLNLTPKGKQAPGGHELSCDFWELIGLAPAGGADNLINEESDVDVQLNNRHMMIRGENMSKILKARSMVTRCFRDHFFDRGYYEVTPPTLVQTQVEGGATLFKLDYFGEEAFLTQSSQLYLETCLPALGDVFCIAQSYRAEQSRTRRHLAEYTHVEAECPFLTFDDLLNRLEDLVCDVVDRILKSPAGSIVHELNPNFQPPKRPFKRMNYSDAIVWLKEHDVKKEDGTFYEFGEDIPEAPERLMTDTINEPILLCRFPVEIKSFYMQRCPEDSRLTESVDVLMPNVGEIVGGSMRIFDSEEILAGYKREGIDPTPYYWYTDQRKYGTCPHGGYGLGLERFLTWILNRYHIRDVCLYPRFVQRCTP

[7] = target: T7, HeLa cell extract proteins (Homo sapiens, UniProt P30405); conditions: protein PPIF; HeLa
T7 construct: endogenous in cells; host or cells: HeLa cell extract
T7 sequence (P30405 30-207): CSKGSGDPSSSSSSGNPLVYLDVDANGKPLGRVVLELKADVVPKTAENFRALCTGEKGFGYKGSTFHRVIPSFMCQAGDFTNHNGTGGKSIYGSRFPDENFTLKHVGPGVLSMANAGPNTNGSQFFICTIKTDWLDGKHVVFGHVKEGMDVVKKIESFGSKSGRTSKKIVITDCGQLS

SMILES | fold changes relative to vehicle control ([1]; HeLa, captured protein KPNA3) | fold changes relative to vehicle control ([2]; protein SSSCA1, HeLa) | fold changes relative to vehicle control ([3]; HeLa, protein HUWE1) | fold changes relative to vehicle control [4] | fold changes relative to vehicle control [5] | fold changes relative to vehicle control [6] | fold changes relative to vehicle control [7] | further results
Nc1nc2c(c(=O)[nH]1)N(C=O)C(CNc1ccc(C(=O)N[C@@H](CCC(=O)O)C(=O)O)cc1)CN2 (stereo partly drawn) [LEU, leucovorin] | 0.9 | 0.95 | 0.98 |  |  |  |  | 
Nc1nc2[nH]cc(CCc3ccc(C(=O)N[C@@H](CCC(=O)O)C(=O)O)cc3)c2c(=O)[nH]1 [PTX, pemetrexed] |  |  |  |  |  |  |  | fold changes relative to vehicle control [1]: 0.9; fold changes relative to vehicle control [2]: 0.94; fold changes relative to vehicle control [3]: 1.02
CCCCCCOc1ccc(Cc2cnc(N)nc2N)cc1 [compound 1] |  |  |  | 0.8 | 0.92 | 1.11 | 1.23 | 
CCCCCCOc1cccc(Cc2cnc(N)nc2N)c1 [compound 2] |  |  |  | 1.17 | 0.91 | 2.06 | 1.79 | 
Nc1nc2cccc(-c3ccccc3)c2n1Cc1ccc(Cl)c(Cl)c1 [compound 3] |  |  |  | 0.82 | 1 | 1.28 | 0.95 | 
NCCOCCOCC(=O)Nc1nc2ncc(CNc3ccc(C(=O)NC(CCC(=O)O)C(=O)O)cc3)nc2c(=O)[nH]1 (stereo not drawn) [compound 6] | 1.02 | 1.13 | 1.23 |  |  |  |  | 
NCCCNc1ccc(C(=O)NC(CCC(=O)O)C(=O)O)cc1 (stereo not drawn) [compound 7] | 0.87 | 1.07 | 0.96 |  |  |  |  | 
